Laboratory results as given in US20250026769A1, “PAPD5 INHIBITORS AND METHODS OF USE THEREOF” (The Children's Medical Center Corporation, priority 2021, published 2025).
Like-named read-outs stand apart in the source and are kept apart here.

How the values were obtained:
rPAPD5 = target: T1, rPAPD5 (Homo sapiens, UniProt Q8NDF8); assay: differential scanning fluorimetry (DSF) binding and stabilization of rPAPD5; conditions: for ΔTm at 100 µM: 100 μM test compound, read-out: ΔTm at 100 μM; for ΔTm at 1 µM: 1 μM test compound (Table 2a), read-out: ΔTm at 1 μM
T1 construct: made in house
Method in brief: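 Differential scanning fluorimetry was used to measure how test compounds bind and thermally stabilize rPAPD5. The reaction contained SYPRO orange dye diluted 1:5000 in […] of buffer with […], 25 mM Tris-HCl, 5 mM MgCl2 and 50 mM KCl. ΔTm was calculated relative to a DMSO control.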

[1] = tested on: hepatitis B surface antigen (HBSAg) from HepG2.2.15 cells, a hepatitis B virus-expressing cell line; assay: HBsAg ELISA in supernatant of HepG2.2.15 cells; assay type: cell-based; conditions: HepG2.2.15, 96 h
Method: HepG2.2.15 cells, a hepatitis B virus-expressing cell line (Sells, M. A. et al., PNAS, 1987), were plated at 50,000 cells/well in DMEM/F12 media (Gibco) with 10% fetal bovine serum (Omega Scientific) in a 24-well or 96-well plate (Corning), in 2-3 replicates for each test compound/concentration plus controls, and incubated in a humidified 5% CO2 chamber at 37° C. The next day, media was aspirated, cells were washed once with phosphate buffered saline, pH7.4 (Gibco), and 1 mL DMEM/12 media was replaced. Test compounds were added in 3-fold dilutions from up to 100 μM down to 333 pM, with vehicle (dimethylsulfoxide (Sigma)) as a control. After four days of culture in a humidified 5% CO2 chamber at 37° C., plates were spun down in a centrifuge at 300 g for 10 minutes at room temperature. Supernatant from each well was collected and either frozen at −20° C. or used directly for quantitation of hepatitis B surface antigen (HBSAg) in an enzyme-linked immunosorbent assay (ELISA). The supernatant was tested using the HBSAg ELISA kit (Abnova Cat. No KA0286) per the manufacturer's instructions. Results of replicates were averaged and nonlinear curve fitting was used to determine the half maximal inhibitory concentration (IC50) for each test compound.

[2] = tested on: telomere length in DC patient iPSCs; assay: telomere length / telomere elongation in DC patient iPSCs; assay type: cell-based, human; conditions: for concentration at which telomere elongation was observed: DC patient iPSCs, after 3-4 weeks of cell culture; for minimal effective concentration: Homo sapiens, iPSC, patient iPSCs, concentration class at which activity is seen, read-out: iPSC-based Telomere length
Method: (§1) Compound 266A had activity ˜2-logs higher in the in vitro RNA oligoadenylation assay compared to the parental compound cmpd. 1, approximating the activity of RG7834 (FIG. 7). […] 1. Compounds 295A and 296A had activity 2-3 logs higher in DC patient iPSCs, showing TERC maturation at 1 nM, similar to RG7834 (FIG. 6). […] Referring to Table 1D, “+” refers to activity at 1 μM, “++” refers to activity above 1 nM and below 1 μM, and “+++” refers to activity at <1 nM, “ND” refers to not determined.

[3] = tested on: TERC 3′ end processing in DC patient iPSCs; assay: TERC 3′ end processing by RACE in DC patient / PARN-mutant iPSCs; assay type: cell-based, human; conditions: for minimal effective concentration: Homo sapiens, iPSC, patient iPSCs, concentration class at which activity is seen, read-out: iPSC-based RACE activity
Method: as §1

[4] = tested on: TERC 3′ end processing in primary CD34+ human hematopoietic stem and progenitor cells (HSPCs); assay: TERC 3′ end processing (RACE) in CRISPR/Cas9-engineered PARN-deficient primary CD34+ HSPCs; assay type: cell-based; conditions: for TERC 3′ end processing by RACE at 1 μM: day 5 (FIG. 40A)
From the text: Example 167—Restoration of TERC 3′ end processing in primary CD34+ human hematopoietic stem and progenitor cells (HSPCs). To determine the efficacy of exemplified compounds in a disease-relevant stem cell population, we employed a highly-efficient CRISPR-Cas9 ribonucleoprotein transduction strategy to disrupt the PARN gene in primary human CD34+ hematopoietic stem and progenitor cells (HSPCs), or the control locus AAVS1. FIGS. 40A and 40B show extended TERC forms in CRISPR-Cas9 engineered HSPCs deficient in PARN.

[5] = 10 μM test compound (Table 2a), read-out: ΔTm at 10 μM
[6] = 10 μM test compound, shift vs DMSO control, read-out: ΔTm (Table 2, starred: the compound was tested at 10 μM)

T1 sequence (Q8NDF8 68-698 isoform Q8NDF8-5 limits assumed): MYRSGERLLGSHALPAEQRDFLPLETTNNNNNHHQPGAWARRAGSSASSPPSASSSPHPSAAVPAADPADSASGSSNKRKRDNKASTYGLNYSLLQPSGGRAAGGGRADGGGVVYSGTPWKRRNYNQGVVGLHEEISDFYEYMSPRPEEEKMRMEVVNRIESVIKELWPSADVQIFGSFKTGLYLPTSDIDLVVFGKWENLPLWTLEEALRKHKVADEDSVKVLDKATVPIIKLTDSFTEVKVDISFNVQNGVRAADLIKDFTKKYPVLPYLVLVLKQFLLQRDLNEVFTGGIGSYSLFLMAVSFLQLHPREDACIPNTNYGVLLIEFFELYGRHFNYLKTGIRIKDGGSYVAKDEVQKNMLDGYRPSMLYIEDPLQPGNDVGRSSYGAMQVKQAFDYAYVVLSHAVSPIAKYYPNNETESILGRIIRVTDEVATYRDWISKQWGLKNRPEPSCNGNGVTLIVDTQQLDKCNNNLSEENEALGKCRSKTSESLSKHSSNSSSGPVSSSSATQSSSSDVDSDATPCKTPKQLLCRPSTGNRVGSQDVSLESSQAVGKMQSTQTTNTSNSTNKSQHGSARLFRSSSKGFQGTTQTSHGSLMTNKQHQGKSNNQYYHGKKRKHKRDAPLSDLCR

O=C(O)c1cc(Cl)ccc1Nc1c(S(=O)(=O)N2CCOCC2)cnc2ccc(Cl)cc12 [Compound 266A, 5-chloro-2-[(6-chloro-3-morpholinosulfonyl-4-quinolyl)amino]benzoic acid]
ΔTm at 100 µM (rPAPD5; shift vs DMSO control): > 5 °C | IC50 [1]: 102 nM | concentration at which telomere elongation was observed [2]: 10 nM | activity in DC patient iPSCs (TERC maturation) relative to cmpd. 1 ([3]; DC patient iPSCs, higher / more potent than cmpd. 1): 1-2 logs

Cl.O=C(O)c1cc(Cl)ccc1Nc1c(-c2ncco2)cnc2ccc(Cl)cc12 [Compound 295A, 5-chloro-2-[(6-chloro-3-oxazol-2-yl-4-quinolyl)amino]benzoic acid]
ΔTm at 100 µM (rPAPD5; shift vs DMSO control): > 5 °C | IC50 [1]: 318 nM | concentration at which telomere elongation was observed [2]: 1 nM | concentration showing maturation of TERC 3′ end processing by RACE ([3]; DC patient iPSCs): 1 nM

O=C(O)c1cc(Cl)ccc1Nc1c(C2=CCSCC2)cnc2ccc(Cl)cc12 [Compound 342A, 5-chloro-2-[[6-chloro-3-(3,6-dihydro-2H-thiopyran-4-yl)-4-quinolyl]amino]benzoic acid]
ΔTm at 1 µM (rPAPD5): > 5 °C | ΔTm at 10 µM (rPAPD5; [5]): > 5 °C | ΔTm at 10 µM (rPAPD5; [6]): > 5 °C | IC50 [1]: 821 nM | minimal effective concentration [2]: < 0.001 µM | minimal effective concentration [3]: < 0.001 µM

O=C(O)c1cc(Cl)ccc1Nc1c(C2CCC(F)(F)CC2)cnc2ccc(Cl)cc12 [Compound 343A, 5-chloro-2-[[6-chloro-3-(4,4-difluorocyclohexyl)-4-quinolyl]amino]benzoic acid]
ΔTm at 1 µM (rPAPD5): > 5 °C | ΔTm at 10 µM (rPAPD5; [5]): > 5 °C | ΔTm at 10 µM (rPAPD5; [6]): > 5 °C | IC50 [1]: 86 nM | minimal effective concentration [2]: < 0.001 µM | minimal effective concentration [3]: < 0.001 µM

O=C(O)c1cc(Cl)ccc1Nc1c(S(=O)(=O)N2CCC(F)(F)CC2)cnc2ccc(Cl)cc12 [Compound 345A, 5-chloro-2-[[6-chloro-3-[(4,4-difluoro-1-piperidyl)sulfonyl]-4-quinolyl]amino]benzoic acid]
ΔTm at 1 µM (rPAPD5): > 5 °C | ΔTm at 10 µM (rPAPD5; [5]): > 5 °C | ΔTm at 100 µM (rPAPD5; shift vs DMSO control): > 5 °C | IC50 [1]: 523 nM | minimal effective concentration [2]: < 0.001 µM | minimal effective concentration [3]: 0.001 to 1 µM

O=C(O)c1cc(Cl)ccc1Nc1c(S(=O)(=O)N2CCSCC2)cnc2ccc(Cl)cc12 [Compound 349A, 5-chloro-2-[(6-chloro-3-thiomorpholinosulfonyl-4-quinolyl)amino]benzoic acid]
ΔTm at 1 µM (rPAPD5): > 5 °C | ΔTm at 10 µM (rPAPD5; [5]): > 5 °C | ΔTm at 100 µM (rPAPD5; shift vs DMSO control): > 5 °C | IC50 [1]: 160 nM | minimal effective concentration [2]: < 0.001 µM | minimal effective concentration [3]: 0.001 to 1 µM

O=C(O)c1cc(Cl)ccc1Nc1c(-c2cnco2)cnc2ccc(Cl)cc12 [Compound 353A, 5-chloro-2-[(6-chloro-3-oxazol-5-yl-4-quinolyl)amino]benzoic acid]
ΔTm at 1 µM (rPAPD5): 1 to 5 °C | ΔTm at 10 µM (rPAPD5; [5]): > 5 °C | ΔTm at 100 µM (rPAPD5; shift vs DMSO control): > 5 °C | IC50 [1]: 438 nM | minimal effective concentration [2]: < 0.001 µM | minimal effective concentration [3]: 0.001 to 1 µM

CN1CCN(c2cnc3ccc(Cl)cc3c2Nc2ccc(Cl)cc2C(=O)O)CC1 [Compound 361A, 5-chloro-2-[[6-chloro-3-(4-methylpiperazin-1-yl)-4-quinolyl]amino]benzoic acid]
ΔTm at 1 µM (rPAPD5): > 5 °C | ΔTm at 10 µM (rPAPD5; [5]): > 5 °C | ΔTm at 100 µM (rPAPD5; shift vs DMSO control): > 5 °C | IC50 [1]: 311 nM | minimal effective concentration [2]: < 0.001 µM | minimal effective concentration [3]: 0.001 to 1 µM

O=C(O)c1cc(Cl)ccc1Nc1c(-c2ccncc2)cnc2ccc(Cl)cc12 [Compound 391A, 5-chloro-2-[[6-chloro-3-(4-pyridyl)-4-quinolyl]amino]benzoic acid]
ΔTm at 1 µM (rPAPD5): 1 to 5 °C | ΔTm at 10 µM (rPAPD5; [5]): > 5 °C | ΔTm at 100 µM (rPAPD5; shift vs DMSO control): > 5 °C | IC50 [1]: 735 nM | minimal effective concentration [2]: < 0.001 µM | minimal effective concentration [3]: 0.001 to 1 µM

O=C(O)c1cc(Cl)ccc1Nc1c(C2CCC(=NO)CC2)cnc2ccc(Cl)cc12 (stereo not drawn) [Compound 396A, 5-chloro-2-[[6-chloro-3-(4-hydroxyiminocyclohexyl)-4-quinolyl]amino]benzoic acid]
ΔTm at 1 µM (rPAPD5): < 1 °C | ΔTm at 10 µM (rPAPD5; [5]): > 5 °C | ΔTm at 100 µM (rPAPD5; shift vs DMSO control): > 5 °C | minimal effective concentration [2]: < 0.001 µM | minimal effective concentration [3]: < 0.001 µM | TERC 3′ end processing by RACE at 100 nM ([4]; 100 nM, day 5 (FIG. 40B)): maturation of TERC 3′ end processing | TERC 3′ end processing by RACE at 1 μM [4]: maturation of TERC 3′ end processing

COc1cc(Cl)cc2c(Nc3ccc(Cl)cc3C(=O)O)c(S(=O)(=O)N3CCSCC3)cnc12 [Compound 418A, 5-chloro-2-[(6-chloro-8-methoxy-3-thiomorpholinosulfonyl-4-quinolyl)amino]benzoic acid]
ΔTm at 1 µM (rPAPD5): > 5 °C | ΔTm at 10 µM (rPAPD5; [5]): > 5 °C | ΔTm at 100 µM (rPAPD5; shift vs DMSO control): > 5 °C | IC50 [1]: 112 nM | minimal effective concentration [2]: < 0.001 µM | minimal effective concentration [3]: < 0.001 µM

O=C(O)c1cc(Cl)ccc1Nc1c(S(=O)(=O)N2CCSCC2)cnc2c(C(F)(F)F)cc(Cl)cc12 [Compound 419A, 5-chloro-2-[[6-chloro-3-thiomorpholinosulfonyl-8-(trifluoromethyl)-4-quinolyl]amino]benzoic acid]
ΔTm at 1 µM (rPAPD5): > 5 °C | ΔTm at 10 µM (rPAPD5; [5]): > 5 °C | ΔTm at 100 µM (rPAPD5; shift vs DMSO control): < 1 °C | minimal effective concentration [2]: < 0.001 µM | minimal effective concentration [3]: < 0.001 µM

O=C(O)c1cc(Cl)ccc1Nc1c(S(=O)(=O)N2CCSCC2)cnc2c(F)cc(Cl)cc12 [Compound 421A, 5-chloro-2-[(6-chloro-8-fluoro-3-thiomorpholinosulfonyl-4-quinolyl)amino]benzoic acid]
ΔTm at 1 µM (rPAPD5): > 5 °C | ΔTm at 10 µM (rPAPD5; [5]): > 5 °C | ΔTm at 100 µM (rPAPD5; shift vs DMSO control): > 5 °C | minimal effective concentration [2]: < 0.001 µM | minimal effective concentration [3]: < 0.001 µM | TERC 3′ end processing by RACE at 1 μM [4]: maturation of TERC 3′ end processing

O=C(O)c1cc(Cl)ccc1Nc1c(S(=O)(=O)N2CCSCC2)cnc2c(Br)cc(Cl)cc12 [Compound 422A, 2-[(8-bromo-6-chloro-3-thiomorpholinosulfonyl-4-quinolyl)amino]-5-chloro-benzoic acid]
ΔTm at 1 µM (rPAPD5): > 5 °C | ΔTm at 10 µM (rPAPD5; [5]): > 5 °C | ΔTm at 10 µM (rPAPD5; [6]): > 5 °C | minimal effective concentration [2]: < 0.001 µM | minimal effective concentration [3]: < 0.001 µM

Cc1nc2ccc(Cl)cc2c(Nc2ccc(Cl)cc2C(=O)O)c1S(=O)(=O)N1CCSCC1 [Compound 423A, 5-chloro-2-[(6-chloro-2-methyl-3-thiomorpholinosulfonyl-4-quinolyl)amino]benzoic acid]
ΔTm at 1 µM (rPAPD5): > 5 °C | ΔTm at 10 µM (rPAPD5; [5]): > 5 °C | ΔTm at 100 µM (rPAPD5; shift vs DMSO control): > 5 °C | minimal effective concentration [2]: < 0.001 µM | minimal effective concentration [3]: < 0.001 µM
